According to paper PMC9329436, “Optimization of the 4-anilinoquin(az)oline scaffold as epidermal growth factor receptor (EGFR) inhibitors for chordoma utilizing a toxicology profiling assay platform” (Scientific Reports, 2022):
“And” between values parts separate entries of the source, which are not always exact repeats. Equal values may be shown once.

Assays:
EGFR = EGFR (Homo sapiens, UniProt P00533); assay: ProQinase in-cell EGFR assay (EGFR phosphorylation in A431 cells); assay type: cell-based; set-up: This cell line endogenously expresses a high level of EGFR; endogenous in cells; host or cells: A431; conditions: ProQinase in-cell EGFR assay, A431 cells, n = 1
Source text: In addition, we ran an EGFR in-cell target engagement assay, measuring in-cell EGFR phosphorylation, using the human epidermoid carcinoma cell line A431. This cell line endogenously expresses a high level of EGFR, and stimulation of these cells with human epidermal growth factor (EGF) results in receptor tyrosine autophosphorylation.

[1] = tested on: U-CH12 patient-derived chordoma cell line; assay: Cell viability assay (alamarBlue, 72 h), U-CH12; assay type: cell-based, human; conditions: n = 4, 72 h
Experimental: (§1) Chordoma cell lines were cultured as described previously[10],[12],[33],[34]. Briefly, U-CH1 and U-CH2 cell lines were cultured in 4:1 IMDM:RPMI medium supplemented with 10% fetal bovine serum (FBS) and 1% penicillin/streptomycin in gel-coated flasks. […] CH22, UM-Chor1, U-CH12, and U-CH7 cell lines were cultured in RPMI medium supplemented with 10% FBS and 1% penicillin/streptomycin. The cell lines all undergo regular mycoplasma screening.
(§2) Cells were seeded in 384 well plates and were treated with test compound in quadruplicate 24 h after plating. Cell viability was assessed at 72 h using alamarBlue (ThermoFisher, USA). […] IC50 values were determined by four-parameter nonlinear regression analyses using GraphPad Prism™ version 8 software (San Diego, CA).

[2] = tested on: UM-Chor1 patient-derived chordoma cell line; assay: Cell viability assay (alamarBlue, 72 h), UM-Chor1; assay type: cell-based, human; conditions: n = 4, 72 h
Experimental: as §1, §2

U-CH1 chordoma cell line = assay: Cell viability assay (alamarBlue, 72 h), U-CH1; assay type: cell-based, human
Experimental: as §1, §2

[3] = tested on: U-CH7 patient-derived chordoma cell line; assay: Cell viability assay (alamarBlue, 72 h), U-CH7; assay type: cell-based, human; conditions: n = 4, 72 h
Experimental: as §1, §2

HL60 cells = assay: AsedaSciences SYSTEMETRIC Cell Health Screen (flow cytometry toxicity profiling); conditions: for CC: Cell Cycle score / CM: Cell morphology score / GSH: Glutathione score / NMI1: Nuclear membrane integrity 1 score / ROS: Reactive superoxide species score / CHI: Cell Health Index / CMI: Cell membrane integrity score / MMP: Mitochondrial membrane depolarization score / NMI2: Nuclear membrane integrity 2 score: HL60, 4 h, 5 nM–100 µM; for CC: Cell Cycle score / CM: Cell morphology score / GSH: Glutathione score / NMI1: Nuclear membrane integrity 1 score / ROS: Reactive superoxide species score / CMI: Cell membrane integrity score / MMP: Mitochondrial membrane depolarization score / NMI2: Nuclear membrane integrity 2 score: probability 0–1, n = 2; for CHI: Cell Health Index: probability (0–1) of high-risk class, n = 2; for Cell Health Toxcity Profile CC (DyeCycle Violet) / Cell Health Toxcity Profile CM (Cell morphology) / Cell Health Toxcity Profile CMI (Cell membrane integrity) / Cell Health Toxcity Profile GSH (Glutathione) / Cell Health Toxcity Profile MMP (Mitochondrial membrane depolarization) / Cell Health Toxcity Profile NMI1 (Nuclear membrane integrity 1) / Cell Health Toxcity Profile NMI2 (Nuclear membrane integrity 2) / Cell Health Toxcity Profile ROS (Reactive superoxide species) / Cell Health Toxcity Profile CHI: SYSTEMETRIC Cell Health Screen, assay n=2; for Cell Health Toxcity Profile CHI: classifier output
Method in brief: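 HL60 cells (100,000 per well) exposed 4 h at 37 °C, 5% CO2 to 10-step 3× dilutions (5 nM–100 µM), in duplicate. Cells then stained with mitochondrial and cell-stress reporter dyes and read by ungated flow cytometry over twelve parameters. Cell Health Index and eight endpoint scores come from an ML classifier trained on 300 high/low-risk compounds.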

[4] = tested on: WS1 human fibroblast cell line; assay: Cell viability assay, WS1 toxicity control; assay type: cell-based; conditions: n = 4, nonspecific toxicity control
Experimental: as §2

U-CH2 chordoma cell line = assay: Cell viability assay (alamarBlue, 72 h), U-CH2; assay type: cell-based, human
Experimental: as §1, §2

[5] = tested on: CH22 patient-derived chordoma cell line; assay: Cell viability assay (alamarBlue, 72 h), CH22; assay type: cell-based, human; conditions: n = 4, 72 h
Experimental: as §1, §2

[6] = Homo sapiens, UCH2, n = 4, 72 h

EGFR, sequence (P00533 25-1210): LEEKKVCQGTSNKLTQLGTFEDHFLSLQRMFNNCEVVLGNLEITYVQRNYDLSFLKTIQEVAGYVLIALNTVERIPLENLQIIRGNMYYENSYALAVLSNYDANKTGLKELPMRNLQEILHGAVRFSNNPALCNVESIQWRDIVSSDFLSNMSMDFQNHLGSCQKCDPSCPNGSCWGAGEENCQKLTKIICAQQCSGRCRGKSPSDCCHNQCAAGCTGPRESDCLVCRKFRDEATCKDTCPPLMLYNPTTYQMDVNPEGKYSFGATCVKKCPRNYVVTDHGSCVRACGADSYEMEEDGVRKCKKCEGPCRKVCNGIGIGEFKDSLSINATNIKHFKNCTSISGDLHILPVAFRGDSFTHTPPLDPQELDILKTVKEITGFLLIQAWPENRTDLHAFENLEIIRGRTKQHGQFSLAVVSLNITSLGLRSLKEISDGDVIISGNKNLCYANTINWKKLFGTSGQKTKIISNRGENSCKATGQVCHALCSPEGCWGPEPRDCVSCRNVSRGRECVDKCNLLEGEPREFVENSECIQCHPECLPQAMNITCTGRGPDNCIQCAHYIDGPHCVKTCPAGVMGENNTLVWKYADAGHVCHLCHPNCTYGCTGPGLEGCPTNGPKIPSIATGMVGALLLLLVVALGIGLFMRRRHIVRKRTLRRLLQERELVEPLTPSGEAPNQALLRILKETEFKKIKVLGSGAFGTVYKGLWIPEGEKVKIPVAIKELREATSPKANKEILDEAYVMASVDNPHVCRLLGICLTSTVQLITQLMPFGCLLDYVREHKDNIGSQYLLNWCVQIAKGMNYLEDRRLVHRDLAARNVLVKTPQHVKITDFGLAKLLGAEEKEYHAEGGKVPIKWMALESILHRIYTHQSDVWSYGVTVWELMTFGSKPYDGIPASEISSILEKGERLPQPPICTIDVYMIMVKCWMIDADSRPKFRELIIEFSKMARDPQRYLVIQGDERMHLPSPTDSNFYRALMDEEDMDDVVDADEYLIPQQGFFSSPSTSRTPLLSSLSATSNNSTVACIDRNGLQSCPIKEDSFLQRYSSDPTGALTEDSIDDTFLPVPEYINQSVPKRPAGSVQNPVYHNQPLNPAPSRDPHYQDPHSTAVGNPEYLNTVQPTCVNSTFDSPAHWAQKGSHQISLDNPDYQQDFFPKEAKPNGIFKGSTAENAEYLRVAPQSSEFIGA

IC50 (EGFR) [µM]	Compound	CC: Cell Cycle score (HL60 cells)	CM: Cell morphology score (HL60 cells)	GSH: Glutathione score (HL60 cells)	NMI1: Nuclear membrane integrity 1 score (HL60 cells)	ROS: Reactive superoxide species score (HL60 cells)	CHI: Cell Health Index (HL60 cells)	IC50 (U-CH1 chordoma cell line; n = 4, 72 h) [µM]	CMI: Cell membrane integrity score (HL60 cells)	IC50 (U-CH2 chordoma cell line; n = 4, 72 h) [µM]	Cell Health Toxcity Profile CC (DyeCycle Violet) (HL60 cells)	Cell Health Toxcity Profile CM (Cell morphology) (HL60 cells)	Cell Health Toxcity Profile CMI (Cell membrane integrity) (HL60 cells)	Cell Health Toxcity Profile GSH (Glutathione) (HL60 cells)	Cell Health Toxcity Profile MMP (Mitochondrial membrane depolarization) (HL60 cells)	Cell Health Toxcity Profile NMI1 (Nuclear membrane integrity 1) (HL60 cells)	Cell Health Toxcity Profile NMI2 (Nuclear membrane integrity 2) (HL60 cells)	Cell Health Toxcity Profile ROS (Reactive superoxide species) (HL60 cells)	Cell Health Toxcity Profile CHI (HL60 cells)	other results
12	C#Cc1cccc(Nc2ncnc3cc(F)c(F)cc23)c1 [Compound 6, N-(3-ethynylphenyl)-6,7-difluoroquinazolin-4-amine]	–	–	–	–	–	–	–	–	–	–	–	–	–	–	–	–	–	–	–
0.83	C#Cc1cccc(Nc2ncnc3ccc(I)cc23)c1 [Compound 9, N-(3-ethynylphenyl)-6-iodoquinazolin-4-amine]	0.087 and 0.071	0.0063	0.050 and 0.029	0.13 and 0.069	0.083 and 0.088	0.21	–	–	–	–	–	–	–	–	–	–	–	–	IC50 ([1]; Homo sapiens): > 100 µM; IC50 ([2]; Homo sapiens): > 100 µM; IC50 (U-CH1 chordoma cell line; Homo sapiens, UCH1, 72 h, n = 4, 72 h): 8.7 µM; IC50 ([3]; Homo sapiens): > 100 µM; IC50 ([4]; Homo sapiens, Fibroblast): 98 µM; IC50 (U-CH2 chordoma cell line; [6]): > 100 µM; IC50 ([5]; Homo sapiens): > 100 µM
0.53	C#Cc1cccc(Nc2ncnc3cc(OC)ccc23)c1 [Compound 11]	0.52	0.050	0.0085	0.61	0.63	0.25	1.9	0.032	1.2	–	–	–	–	–	–	–	–	–	IC50 [1]: > 100 µM; IC50 [2]: > 100 µM; IC50 [3]: 95 µM; MMP: Mitochondrial membrane depolarization score (HL60 cells): 0.068; NMI2: Nuclear membrane integrity 2 score (HL60 cells): 0.15; IC50 [4]: 88 µM; IC50 [5]: > 100 µM
2.8	C#Cc1cccc(Nc2ncnc3cc(I)ccc23)c1 [Compound 15]	0.95	1.00	0.98	0.21	1.00	0.77	17	1.00	> 100	–	–	–	–	–	–	–	–	–	IC50 [1]: > 100 µM; IC50 [2]: > 100 µM; IC50 [3]: > 100 µM; MMP: Mitochondrial membrane depolarization score (HL60 cells): 0.99; NMI2: Nuclear membrane integrity 2 score (HL60 cells): 0.94; IC50 [4]: > 100 µM; IC50 [5]: > 100 µM
–	C#Cc1cccc(Nc2c(C#N)cnc3ccc(Cl)cc23)c1 [Compound 26]	–	–	–	–	–	–	14	–	40	0.93	1.00	1.00	0.99	0.99	0.98	0.97	1.00	0.83	–
–	C#Cc1cccc(Nc2c(C#N)cnc3ccc(Br)cc23)c1 [Compound 27]	–	–	–	–	–	–	22	–	30	0.98	1.00	1.00	0.98	0.96	0.32	0.98	1.00	0.75	–
2.5	C#Cc1cccc(Nc2c(C#N)cnc3ccc(I)cc23)c1 [Compound 28, 4-((3-ethynylphenyl)amino)-6-iodoquinoline-3-carbonitrile]	0.91	0.88	0.93	0.74	0.89	0.70	–	1.00	–	0.91	0.88	1.00	0.93	0.99	0.74	0.81	0.89	0.70	IC50 ([1]; Homo sapiens): 7.7 µM; IC50 ([2]; Homo sapiens): 6.9 µM; IC50 (U-CH1 chordoma cell line; Homo sapiens, UCH1, n = 4, 72 h): 8.7 µM; IC50 ([3]; Homo sapiens): > 100 µM; MMP: Mitochondrial membrane depolarization score (HL60 cells): 0.99; NMI2: Nuclear membrane integrity 2 score (HL60 cells): 0.81; IC50 (U-CH2 chordoma cell line; [6]): 14 µM; IC50 ([5]; Homo sapiens): 8.4 µM
–	C#Cc1cccc(Nc2c(C#N)cnc3ccc(S(C)(=O)=O)cc23)c1 [Compound 29]	–	–	–	–	–	–	92	–	52	0.071	0.003	0.037	0.039	0.021	0.18	0.009	0.046	0.16	–
–	C#Cc1cccc(Nc2c(C#N)cnc3cc(Cl)ccc23)c1 [Compound 30]	–	–	–	–	–	–	> 100	–	> 100	0.17	0.31	0.25	0.065	0.080	0.69	0.041	0.44	0.35	–
–	C#Cc1cccc(Nc2c(C#N)cnc3cc(Br)ccc23)c1 [Compound 31]	–	–	–	–	–	–	> 100	–	> 100	0.92	0.95	0.88	0.92	0.84	0.45	0.34	0.87	0.59	–
–	C#Cc1cccc(Nc2c(C#N)cnc3cc(OC)ccc23)c1 [Compound 33]	–	–	–	–	–	–	4.1	–	40	0.81	0.97	0.90	0.78	0.22	0.20	0.16	0.68	0.44	–
–	C#Cc1cccc(Nc2ncnc3cc(OCCOC)c(OCCOC)cc23)c1 [Erlotinib, reference compound]	–	0.77	0.63 and 0.81	–	–	–	–	0.50 and 0.74	–	–	–	–	–	–	–	–	–	–	IC50 ([1]; Homo sapiens): 68 µM; IC50 ([2]; Homo sapiens): 19 µM; IC50 ([3]; Homo sapiens): 95 µM; IC50 ([4]; Homo sapiens, Fibroblast): 19 µM; IC50 ([5]; Homo sapiens): > 100 µM
